Results taken from ChEMBL document CHEMBL1201862, “PubChem BioAssay data set” (2004).
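Cells were grown in 96-well plates and exposed to each compound for 48 hours at five concentrations; endpoints were interpolated linearly between bracketing concentrations, or set to the highest concentration if not reached. GI50 = concentration required for 50% inhibition of growth.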 Active and inactive are the calls of the source. No stated cut-off is given here; in the data, active = GI50 up to about 1.1 µM and inactive = higher.

How the values were obtained:
Assay in all cases: NCI-60 cell line screen, 48 h
[1] = test system: 786-0
[2] = test system: A549
[3] = test system: DU-145
[4] = test system: HL-60
[5] = test system: HOP-92
[6] = test system: K562
[7] = test system: LOX IMVI
[8] = test system: MCF7
[9] = test system: MDA-MB-231
[10] = test system: MDA-MB-435
[11] = test system: MDA-N
[12] = test system: NCI-H226
[13] = test system: OVCAR-3
[14] = test system: PC-3
[15] = test system: RPMI-8226
[16] = test system: SF-268
[17] = test system: SW-620
[18] = test system: T47D
[19] = test system: UACC-62
[20] = test system: UO-31

Measured: GI50

CCC(c1c[nH]c2ccc(Br)cc12)c1c[nH]c2ccc(Br)cc12
inactive: [1] 3.56 µM | [2] 3.72 µM | [3] 2.88 µM | [4] 4.39 µM | [5] 2.05 µM | [6] 2.54 µM | [7] 2.44 µM | [8] 3.98 µM | [9] 11.1 µM | [10] 3.13 µM | [11] 4.33 µM | [12] 11.8 µM | [13] 3.96 µM | [14] 4.81 µM | [15] 2.5 µM | [16] 5.97 µM | [17] 3.94 µM | [18] 2.3 µM | [19] 10.2 µM | [20] 6.97 µM

CN(CCC#N)c1ccc(/C=C2\SC(=S)NC2=O)cc1
inactive: [1] 34.8 µM | [2] 34.1 µM | [3] 73.6 µM | [4] 24.3 µM | [5] 22.6 µM | [6] 45.4 µM | [7] 8.2 µM | [8] 46.6 µM | [9] 56 µM | [10] 31.6 µM | [11] 53.6 µM | [12] > 100 µM | [13] 27.7 µM | [14] 34.3 µM | [15] 34 µM | [16] 63.1 µM | [17] 58.2 µM | [18] 51.2 µM | [19] 19.8 µM | [20] 27.2 µM

CC(O)C1(CNc2cc(Cl)nc(N)n2)CCCCC1 (stereo not given)
inactive: [1] > 100 µM | [2] 77.6 µM | [3] > 100 µM | [4] 89.7 µM | [5] 69.3 µM | [6] 69.3 µM | [7] 91 µM | [8] 82.2 µM | [9] > 100 µM | [10] > 100 µM | [11] > 100 µM | [12] > 100 µM | [13] > 100 µM | [14] 65.6 µM | [15] 48.9 µM | [16] > 100 µM | [17] > 100 µM | [18] 59 µM | [19] > 100 µM | [20] 59.2 µM

Oc1c(C(Nc2ccccn2)c2ccccc2)ccc2cccnc12 (stereo not given)
inactive: [1] 2.76 µM | [2] 4.35 µM | [3] 4.05 µM | [4] 2.28 µM | [5] 1.94 µM | [6] 3.22 µM | [7] 2.77 µM | [8] 4.04 µM | [9] 3.08 µM | [10] 5.73 µM | [11] 5.7 µM | [12] 2.59 µM | [13] 2.51 µM | [14] 3.39 µM | [15] 2.56 µM | [16] 2.94 µM | [17] 7.13 µM | [18] 3.94 µM | [19] 4.33 µM | [20] 3.14 µM

O=C1CSC(c2ccc(Cl)cc2)N1c1ccc(Oc2ccc(Cl)cc2)c(Cl)c1 (stereo not given)
inactive: [1] 16.8 µM | [2] 16.2 µM | [3] 13.1 µM | [4] 11 µM | [5] 15.7 µM | [6] 17.3 µM | [7] 15.2 µM | [8] 21.9 µM | [9] 16.4 µM | [10] 17.6 µM | [11] 14.5 µM | [12] 17.4 µM | [13] 15 µM | [14] 15.2 µM | [15] 8.95 µM | [16] 10.7 µM | [17] 18.3 µM | [18] 10.7 µM | [19] 15.4 µM | [20] 8.26 µM
